Source: PubChem BioAssay (NCI)
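Where inhibition never reached the appropriate level, the endpoint shown equals the highest concentration tested. Otherwise, values were interpolated linearly from a five-concentration, 48-hour dose response in 96-well plates. At the GI50, growth is halved. TGI: total growth inhibition.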

Experiments:
Assay in all cases: NCI tumour cell line growth inhibition, 48 h
786-0 renal = test system: 786-0 renal
NCI-H460 lung = test system: NCI-H460 lung
SNB-19 CNS = test system: SNB-19 CNS
UACC-257 melanoma = test system: UACC-257 melanoma
ACHN renal = test system: ACHN renal
OVCAR-8 ovarian = test system: OVCAR-8 ovarian
SR leukemia = test system: SR leukemia
EKVX NSCLC = test system: EKVX NSCLC
HCT-116 colon = test system: HCT-116 colon
HL-60(TB) leukemia = test system: HL-60(TB) leukemia

Compound	GI50 (786-0 renal)	TGI (786-0 renal)	GI50 (NCI-H460 lung)	TGI (NCI-H460 lung)	GI50 (SNB-19 CNS)	TGI (SNB-19 CNS)	GI50 (UACC-257 melanoma)	TGI (UACC-257 melanoma)	GI50 (ACHN renal)	TGI (ACHN renal)	GI50 (OVCAR-8 ovarian)	TGI (OVCAR-8 ovarian)	GI50 (SR leukemia)	TGI (SR leukemia)	GI50 (EKVX NSCLC)	TGI (EKVX NSCLC)	GI50 (HCT-116 colon)	TGI (HCT-116 colon)	TGI (HL-60(TB) leukemia)	GI50 (HL-60(TB) leukemia)
COC(=O)C1=C(O)C(C(=O)OC)[C@@]2(O)[C@@H](C(=O)OC)C(c3ccccc3C(F)(F)F)C[C@@H]1[C@@H]2C(=O)OC (stereo partly drawn)	4.49 µM	16.4 µM	3.11 µM	10.5 µM	1.81 µM	13.6 µM	6.39 µM	20.3 µM	1.61 µM	3.05 µM	10.1 µM	24.5 µM	2.82 µM	62.4 µM	6.36 µM	19.4 µM	6.34 µM	18.8 µM	–	–
OCCOCn1nc(-c2ccccc2)nc1-c1cnccn1	–	> 100 µM	–	> 100 µM	–	> 100 µM	–	> 100 µM	–	–	–	> 100 µM	–	> 100 µM	–	> 100 µM	–	> 100 µM	> 100 µM	–
O=C(CCCCCn1c2ccccc2c2c3c(c4c5ccccc5[nH]c4c21)C(=O)N(O)C3=O)N1CCOCC1	1.99 µM	4.91 µM	2.16 µM	4.69 µM	3.05 µM	36.8 µM	3.19 µM	7.76 µM	–	–	2.84 µM	7.86 µM	1.12 µM	5.45 µM	4.62 µM	43.3 µM	–	–	5.45 µM	2.01 µM
Cc1cccc2c1NC(c1c(C)[nH]c3ccccc13)C2 (stereo not drawn)	–	> 100 µM	–	> 100 µM	–	> 100 µM	–	> 100 µM	–	> 100 µM	–	> 100 µM	–	> 100 µM	–	> 100 µM	–	> 100 µM	> 100 µM	–
COc1ccc(-c2ccc(/C=N/n3cnn(CN4CCN(C)CC4)c3=S)o2)c([N+](=O)[O-])c1	19.6 µM	> 100 µM	35.2 µM	> 100 µM	56.4 µM	> 100 µM	–	–	30.1 µM	70.5 µM	18.9 µM	55.5 µM	31.5 µM	> 100 µM	34.8 µM	> 100 µM	–	–	49.9 µM	17.7 µM
Cc1c(Br)cccc1NC(=O)c1sc2nc3c(cc2c1N)CN(Cc1ccccc1)CC3	0.256 µM	7.98 µM	0.191 µM	5.02 µM	0.448 µM	> 50 µM	8.92 µM	> 50 µM	0.444 µM	40 µM	0.298 µM	> 50 µM	0.107 µM	> 50 µM	0.359 µM	> 50 µM	0.182 µM	5.58 µM	0.456 µM	0.161 µM
CC(=O)O/N=C1\C=Cc2c(no[n+]2[O-])C1=O	–	33.5 µM	–	> 100 µM	–	> 100 µM	–	32.2 µM	–	30.9 µM	–	25.4 µM	–	48.5 µM	–	31.5 µM	–	27.6 µM	–	–
NC(N)=Nc1nc2cc(N)ccc2o1	–	> 100 µM	–	> 100 µM	–	> 100 µM	–	> 100 µM	–	> 100 µM	–	> 100 µM	–	> 100 µM	–	> 100 µM	–	> 100 µM	> 100 µM	–
